# According to US8293780B1, “Anti-cancer agents based on 6-trifluoromethoxybenzimidazole derivatives and method of making” (U.S. Department of Energy, priority 2009, dated 2012):
# Structures can show the parent of a compound that is named as a salt.
# System: DU-145 cells (prostate carcinoma)
# Experiment: DU-145 cell growth inhibition, tetrazolium dye XTT viability endpoint
# Format: cell-based
# Details: Homo sapiens, triplicate, five half-logarithmic dilutions, read-out: DU145 TC50
# Method: Cell Preparation: DU-145 cells (prostate carcinoma; catalog #HTB-81) were obtained from the ATCC and propagated in EMEM with Earles BSS supplemented with 10% FBS (fetal bovine serum), 2 mM L-glutamine, 100 U/mL penicillin, 100 μg/mL streptomycin, 1 mM sodium pyruvate, and 0.1 mM NEAA (Non-Essential Amino Acids). DU-145 cells were passaged in T-75 flasks prior to use in the assay. On the day preceding the assay, the cells were split 1:2 to assure they were in an exponential growth phase at the time of infection. Total cell and viability quantification was performed using a hemocytometer and Trypan Blue dye exclusion. Cell viability was greater than 95% for the cells to be utilized in the assay. The cells were re-suspended at 1×10^5 cells per mL in tissue culture medium and added to the drug-containing microtiter plates in a volume of 100 μL.
# Plate Format: Each plate contained cell control wells (cells only), experimental compound evaluation wells (cells plus compound only), and test compound colorimetric control wells (compound only). Samples were initially tested in triplicate for inhibition of DU-145 cell growth at 10 μM concentration for each compound with a single colorimetric control well. Secondary assay tested the compounds in triplicate using five half-logarithmic dilutions.
# Tetrazolium Dye XTT Viability Endpoint: Following incubation at 37° C. in a 5% CO2 incubator, the test plates were stained with the tetrazolium dye XTT (2,3-bis(2-methoxy-4-nitro-5-sulfophenyl)-5-[(phenylamino)carbonyl]-2H-tetrazolium hydroxide). XTT was metabolized by the mitochondrial enzymes of metabolically active cells to a soluble formazan product, allowing rapid quantitative analysis of the inhibition of DU-145 […] by anti-prostate cancer test substances. XTT solution was prepared daily as a stock of 1 mg/mL in RPMI1640. Phenazine methosulfate (PMS) solution was prepared at 0.15 mg/mL in PBS (Phosphate—Buffered Saline) and stored in the dark at −20° C. XTT/PMS stock was prepared immediately before use by adding 40 μL of PMS per ml of XTT solution. Fifty microliters of XTT/PMS was added to each well of the plate and the plate was reincubated for 4 hours at 37° C. Plates were sealed with adhesive plate sealers and shaken gently or inverted several times to mix the soluble formazan product and the plate was read spectrophotometrically at 450/650 nm with a Molecular Devices Vmax plate reader.
# IC50 represents the concentration of a drug that is required for 50% inhibition in vitro.
row,SMILES,CC50
1,FC(F)(F)Oc1ccc2nc(-c3cccnc3)[nH]c2c1,4.6 µM
2,"CC/C(=C(\c1ccccc1)c1ccc(OCCN(C)C)cc1)c1ccccc1 [Tamoxifen Citrate, reference compound]",20 µM
3,Cc1nc2ccc(OC(F)(F)F)cc2[nH]1,> 10 µM
4,FC(F)(F)Oc1ccc2nc(-c3ccco3)[nH]c2c1,1.8 µM
5,CCc1nc2ccc(OC(F)(F)F)cc2[nH]1,> 10 µM
6,FC(F)(F)Oc1ccc2nc(-c3ccccc3)[nH]c2c1,0.9 µM
